Each block holds one molecule with its values, some of them ahead of it. Non-standard residues stand in square brackets, D forms with d. Residues, ends and D or L forms follow the SMILES beside them. No end group written: not given here. pS = N[C@@H](COP(=O)(O)O)C(=O)O
Legend:
Recombinant bovine HSC70 [1] = molecular target: T1, Recombinant bovine HSC70 (Bos taurus, UniProt P19120); assay: Surface plasmon resonance, direct binding of peptides to immobilized HSC70; conditions: SPR BIAcore 3000, HSC70 immobilized via thiol groups on CM5, HBS-EP pH 7.4, 25°C, peptide 1.56 to 12.5 µM, 1:1 Langmuir model; for kon: read-out: association rate constant (kon); for koff: read-out: dissociation rate constant (koff)
T1 construct: purchased Stressgen
T1 sequence (P19120 whole entry): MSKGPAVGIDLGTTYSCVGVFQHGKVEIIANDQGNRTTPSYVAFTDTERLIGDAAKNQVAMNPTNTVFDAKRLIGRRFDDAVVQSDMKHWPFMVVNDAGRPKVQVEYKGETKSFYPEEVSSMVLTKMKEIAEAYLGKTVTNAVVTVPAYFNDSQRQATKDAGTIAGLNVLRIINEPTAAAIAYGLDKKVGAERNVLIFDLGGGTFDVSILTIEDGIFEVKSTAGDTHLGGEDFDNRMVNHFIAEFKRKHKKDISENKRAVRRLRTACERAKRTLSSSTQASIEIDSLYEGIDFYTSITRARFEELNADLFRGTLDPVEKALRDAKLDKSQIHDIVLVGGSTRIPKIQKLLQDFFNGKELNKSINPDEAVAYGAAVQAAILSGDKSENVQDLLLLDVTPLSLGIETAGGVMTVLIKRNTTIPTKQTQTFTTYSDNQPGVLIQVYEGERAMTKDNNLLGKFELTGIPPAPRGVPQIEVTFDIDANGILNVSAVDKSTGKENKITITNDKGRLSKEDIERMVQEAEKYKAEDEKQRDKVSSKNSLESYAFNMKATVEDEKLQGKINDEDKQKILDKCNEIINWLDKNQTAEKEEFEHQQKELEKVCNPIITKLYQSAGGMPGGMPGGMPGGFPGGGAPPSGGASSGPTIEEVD
Experimental: To assess P140 binding to HSC70, we investigated the binding parameters and kinetics by surface plasmon resonance. HSC70 was immobilized onto the sensor chip via one of its four thiol groups, and different concentrations of P140 and 131–151 peptides were injected in the flux followed by a dissociation phase (see the overlay surface plasmon resonance plots of the raw data in Figure 1B). […] Similar data were obtained when biotinylated P140 was on the chip and HSC70 in solution. Thus, in this in vitro system, both peptides bind with medium affinity (µM range) to HSC70. […] Of significant importance, no binding was observed between P140 and Hsp70.
BIAcore 3000 system (Biacore AB) was used to evaluate the binding of P140 peptide to HSC70 protein. Sensor chip CM5, surfactant P20, amine coupling kit containing N-hydroxysuccinimide (NHS) and N-ethyl-N′-dimethylaminopropyl carbodiimide (EDC), 2-(2-pyridinyldithio)ethaneamine (PDEA) and ethanolamine were from Biacore AB. Biosensor assays were performed with HBS-EP buffer as running buffer (10 mM HEPES, 150 mM NaCl, 3 mM EDTA, 0.005% surfactant P20, pH 7.4). The different compounds were diluted in the running buffer. The sensor chip surface was regenerated after each experiment by injecting 10 µL of 10 mM HCl. Recombinant bovine HSC70 (Stressgen) was immobilized on flow cells of a CM5 sensor chip through its thiol groups using 35 µL PDEA in 50 mM borate buffer, pH 8.3 on the NHS/EDC-activated matrix. Then, 35 µL of HSC70 (100 µg/mL in formate buffer, pH 4.3) were injected until a response of 13,000 response units (RU) corresponding to 13 ng/mm^2 of HSC70 was immobilized. Twenty µL of a 50 mM cysteine/1 M NaCl solution was used to saturate unoccupied sites on the chip. The direct binding measurement of P140 peptides to HSC70 was carried out at 25°C with a constant flow rate of 20 µL/min. P140 peptide and analogues were injected in the flux at different concentrations for 3 min, followed by a dissociation phase of 3 min. The kinetic parameters were calculated using the BIAeval 3.1 software on a personal computer. Analysis was performed using the simple 1∶1 Langmuir binding model. The specific binding profiles were obtained after subtracting the response signal from the control empty channel and from blank-buffer injection. The fitting to each model was judged by the χ square value and randomness of residue distribution compared to the theoretical model.

[2] = Solubility limit by dynamic light scattering; assay type: physicochemical
Experimental: The solubility of P140 and 131–151 peptides was determined at 20 and 37°C using dynamic light scattering measurements. […] The integrity of P140, as measured in saline and PBS by high-performance liquid chromatography from the area of the peak corresponding to the intact peptide, remained intact during at least 60 days at 37°C (Figure 2D).
The synthesis and purification of P140 peptide (RIHMVYSKRpSGKPRGYAFIEY; produced under Good Manufacturing Practice conditions), and of peptides 131–151 ([…]) and ScP140 (YVSRYFGpSAIRHEPKMKIYRG) were described previously, [3], [7]. For the biotin-labeled peptides, the biotin moiety was introduced at the end of peptide assembly as a Fmoc-Lys(biotin)-OH derivative. Homogeneity of peptides was checked by analytical high-performance liquid chromatography, and their identity was assessed by matrix-assisted laser desorption and ionization time-of-flight (TOF) mass spectrometry using a Protein TOF apparatus (Bruker Spectrospin). The solubility limits of both peptides in the cell culture medium RPMI 1640, PBS and distilled water were determined at 20 and 37°C using dynamic light scattering measurements.

[3] = molecular target: HSC70 (heat-shock cognate 71-kDa protein) (UniProt P63017); assay: biotin-peptide on cells, lysis, avidin-agarose pull-down; conditions: reference: non-phosphorylated biotin-peptide 131-151; sites S140
SLE patients = conditions: human, in vivo; cited from earlier work
MRL/lpr mice = test system: MRL/lpr mice; parameters: method as in PMID 2397613; conditions: cited from earlier work
recombinant bovine HSC70 [4] = molecular target: T2, recombinant bovine HSC70 (bovine, UniProt P19120 1-650); assay: SPR; BIAcore 3000; recombinant bovine HSC70 immobilised on CM5 chip through its thiol groups (13,000 RU); peptides injected (1.56 to 12.5 µM) 3 min, dissociation 3 min; 25°C, 20 µL/min; HBS-EP pH 7.4; 1:1 Langmuir model; conditions: both partners purified
T2 construct: heat-shock cognate HSC70 protein, bovine, recombinant (Stressgen); Immobilised through one of its four thiol groups in the SPR experiment; no tag is named; also called recombinant HSC70 protein; source: bought: Stressgen (recombinant)
T2 sequence (P19120 whole entry): as above

Molecule: U1-70K small nuclear ribonucleoparticle protein 131-151 (from UniProt Q62376) biotin-P140 (pS140)
- binding against the reference [3]: same

Molecule: N=C(N)NCCCCCCC(=O)NC(O)C(=O)NCCCCNCCCN (centres unmarked) [15-deoxyspergualin]
- treated patients with non-severe infectious episodes (SLE patients): two of three
- progression of polyclonal B cell activation and lupus nephropathy (MRL/lpr mice): suppressed the progression

Molecule: RIHMVYSKRSGKPRGYAFIEY [131–151]
- kon (Recombinant bovine HSC70 [1]): 606 M⁻¹ s⁻¹
- koff (Recombinant bovine HSC70 [1]): 0.00407 s⁻¹
- solubility ([2]; 200 µM-solution in water, PBS and culture medium (RPMI 1640), 20 and 37°C): highly soluble

B2: P140 peptide (U1-70K snRNP protein residues 131-151, phosphorylated on Ser140) (peptide)
peptide: RIHMVYSKR[pS]GKPRGYAFIEY
notes: pS is the phosphoserine; also called phosphopeptide P140; source: synthetic peptide
- Kd (recombinant bovine HSC70 [4]): 7.32 µM

More lines, now with the values ahead:

- kon (Recombinant bovine HSC70 [1]): 530 M⁻¹ s⁻¹
- koff (Recombinant bovine HSC70 [1]): 0.00388 s⁻¹
- solubility ([2]; in water): highly soluble
Molecule: CC[C@H](C)[C@H](NC(=O)[C@H](Cc1ccccc1)NC(=O)[C@H](C)NC(=O)[C@H](Cc1ccc(O)cc1)NC(=O)CNC(=O)[C@H](CCCNC(=N)N)NC(=O)[C@@H]1CCCN1C(=O)[C@H](CCCCN)NC(=O)CNC(=O)[C@H](COP(=O)(O)O)NC(=O)[C@H](CCCNC(=N)N)NC(=O)[C@H](CCCCN)NC(=O)[C@H](CO)NC(=O)[C@H](Cc1ccc(O)cc1)NC(=O)[C@@H](NC(=O)[C@H](CCSC)NC(=O)[C@H](Cc1c[nH]cn1)NC(=O)[C@@H](NC(=O)[C@@H](N)CCCNC(=N)N)[C@@H](C)CC)C(C)C)C(=O)N[C@@H](CCC(=O)O)C(=O)N[C@@H](Cc1ccc(O)cc1)C(=O)O [P140] (HELM PEPTIDE1{R.I.H.M.V.Y.S.K.R.[O=C([C@H](COP(=O)(O)O)N[*:1])[*:2]].G.K.P.R.G.Y.A.F.I.E.Y}$$$$V2.0)

- Kd (recombinant bovine HSC70 [4]): 6.72 µM
B1: non-phosphorylated peptide 131-151 of the U1-70K snRNP protein (peptide)
peptide: RIHMVYSKRSGKPRGYAFIEY
notes: also called non-phosphorylated analogue; source: synthetic peptide
